Molecules are shown by their SMILES.

Series [1] concerns Abcd1^-/Abcd2^-/- mice. Put plainly: Treadmill test. The class given is in vivo. The settings on record: double knockout mice, after 3 months of treatment with TUDCA; Figure 3B. As for the experimental part:
(§1) The bile acid tauroursodeoxycholic acid TUDCA (Prodotti Chimici e Alimentari S.p.A., Italy) was mixed into AIN-76A chow (Dyets) at 0.4% w/w. Male mice were randomly assigned to one of the following groups: wild-type mice (n=10) that received normal AIN-76A chow, Abcd1^-/- mice (n=10) that received normal AIN-76A chow and Abcd1^-l- mice (n=10) that received AIN-76A chow containing TUDCA. The animals were treated for 3 months starting at 9 months of age to assess its effect on the progression of the biochemical signs of X-linked adrenoleukodystrophy. […]
(§2) For behavioral testing, assessment of hindlimb clasping was done by suspending mice from their tails until it reached a vertical position, but allowing the mice to grab the grill of the lid of the cage with the forelimbs, adapted from Dumser et al. cited supra. Hindlimb reflex was analysed for 10s in three consecutive trials separated by 5 min rest. […]
(§3) Locomotor deficits in Abcd1 /Abcd2^-/- mice were evaluated using clasping, treadmill and bar cross experiments after TUDCA treatment as described (Dumser M- et al., 2007 cited supra, Launay N. et al., 2015 cited supra). […]

A further series relates to Abcd1 null mice. Put plainly: Immunoblot (Western blot) of ER stress and UPR markers in spinal cords of X-ALD mice. It counts as in vivo. The settings on record: diet with 0.4 % (wt/wt) TUDCA for 3 months.
Excerpt: The generation and genotyping of Abcd1 null mice have been previously described (Pujol A. et al., Hum Mol Genet 2002; 11:499-505, Lu JF. et al., Proc.Natl.Acad.Sci.U.S.A 1997; 94:9366-9371.). Mice used for experiments were of a pure C57BL/6J background. Abcd1 null and WT mice were separated into control and treated groups. Treated groups were fed with a mixture of antioxidants that included 1000 iu/kg Vitamin E and 0.5% α-lipoic acid in the diet and 1% N-acetyl-cysteine (NAC) in water. Daily feedings were initiated at 8 months of age and were continued for 4 months until sacrifice.
as §1
Tissues were lysed in ice-cold RIPA buffer (50 mM Tris-HCl, pH 8, 12 mM deoxycholic acid, 150 mM NaCl and 1% NP40, supplemented with Complete Protease Inhibitor Cocktail, Roche) using a Teflon-on-glass homogenizer and then centrifuged at 1500 x g for 10 min at 4°C. The protein concentration was determined using a BCA protein assay kit (Thermo Fisher Scientific, Inc.). […]
To determine whether ER stress is regulated by redox imbalance in vivo, the inventors treated with antioxidants during 4 months the presymptomatic Abcd1 null mice at 8 months of age. Next, they assessed by Western Blots the presence of ER stress and UPR responses.
The mouse model of the disease, the Abcd1 null mouse, develops a late onset axonopathy that resembles the most frequent X-linked adrenoleukodystrophy phenotype, AMN. […] Then, the inventors determined the protein levels of ER stress marker dysregulated in the Abcd1 null mice. […]

Series [2] concerns Abcd1^-/Abcd2^-/- mice. Put plainly: Immunohistochemistry of axonal degeneration, microgliosis and astrocytosis in spinal cord. The class given is in vivo. The settings on record: 17-month-old double knockout mice, 0.4% w/w TUDCA in chow for 4 months from 13 months of age. On the procedure:
(§4) The bile acid tauroursodeoxycholic acid TUDCA (Prodotti Chimici e Alimentari S.p.A., Italy) was mixed into AIN-76A chow (Dyets) at 0.4% w/w. Male mice were randomly assigned to one of the following groups: wild-type mice (n=10) that received normal AIN-76A chow, Abcd1^-/- mice (n=10) that received normal AIN-76A chow and Abcd1^-l- mice (n=10) that received AIN-76A chow containing TUDCA. The animals were treated for 3 months starting at 9 months of age to assess its effect on the progression of the biochemical signs of X-linked adrenoleukodystrophy. The double knockout mice and their control littermates were randomly assigned to one of the following groups: wild-type mice (n=10) that received normal AIN-76A chow; double knockout mice (n =10) that received normal AIN-76A chow; and double knockout mice (n =10) that received AIN-76A chow containing TUDCA. The animals were treated for 4 months starting at 13 months of age to coincide with the onset of clinical signs. TUDCA had no effect on weight or food intake under either treatment protocol.
[…] Immunohistochemistry was carried out with the avidin-biotin peroxidase method and at least five sections of the spinal cord were analysed per animal and per stain. […] The results were expressed as the mean ± standard deviation. […]

The subject of series [3] is Abcd1^-/Abcd2^-/- mice. Put plainly: Hindlimb clasping test. The class given is in vivo. Conditions: double knockout mice with TUDCA; untreated score 1, wild type 2; Figure 3A. As for the experimental part:
as §1, §2, §3

The subject of series [4] is Abcd1^-/Abcd2^-/- mice. Put plainly: Bar cross test. The class given is in vivo. Conditions: double knockout mice with TUDCA; Figure 3C. On the procedure: as §1, §2, §3
Series [5] can be described thus: Weight and food intake during treatment in chow. The class given is in vivo, mice. Conditions: 0.4% w/w in AIN-76A chow, either treatment protocol (3 months from 9 months; 4 months from 13 months). As for the experimental part:
as §4

For `C[C@H](CCC(=O)NCCS(=O)(=O)O)[C@H]1CC[C@H]2[C@@H]3[C@@H](O)C[C@@H]4C[C@H](O)CC[C@]4(C)[C@H]3CC[C@]12C` [TUDCA, 3α,7β-Dihydroxy-5β-cholanoyltaurine], the “shock times and number of shocks” value with Abcd1^-/Abcd2^-/- mice [1] is on record as “indistinguishable from wild types”. For the same compound, the “ATF6, P-PERK, P-eif2α/eif2α, ATF4 and CHOP levels” value in the series with Abcd1 null mice (Figure 1C) is reported as “normalized”. In addition, in the series with Abcd1 null mice (Figure 1D), the PDI upregulation entry was “prevented”; the “levels of the ER chaperones GRP78 and GRP94” value is listed as “normalized”. Besides, the axonal damage markers entry in the series with Abcd1^-/Abcd2^-/- mice [2] (APP and synaptophysin accumulation, Figures 2A, 2B) is “strikingly reduced to control levels”. For the same compound, in the series on Abcd1^-/Abcd2^-/- mice [2] (GFAP and Iba-1 staining, Figure 2A), the “numbers of reactive astrocytes and reactive microglia” value is given as “strikingly reduced to control levels”. Also, in the series with Abcd1^-/Abcd2^-/- mice [3], the median clasping score is 1.75. For the same compound, in the series on Abcd1^-/Abcd2^-/- mice [4], the number of slips result is given as “normalized” and the “time necessary to cross the bar” value is reported as “normalized”. Moreover, in series [5], the food intake result is given as “no effect” and the weight result is on record as “no effect”.
